# Measured values reported in patent publication USRE46856E1, “Substituted 2,3-dihydroimidazo[1,2-c]quinazoline derivatives useful for treating hyper-proliferative disorders and diseases associated with angiogenesis” (Bayer Intellectual Property GmbH, priority 2006, dated 2018).
# Test system: IGF-1 induced AKT phosphorylation in A549 cells
# Assay: IGF-1 induced AKT phosphorylation assay (A549 cell assay)
# Type: cell-based
# Details: Homo sapiens, A549, read-out: average IC50 in the A549 cell assay
# Excerpt: [Determination of IC50 Values of Compounds in Cell Based Assays of PI3K Activity] 96-well collagen treated clear bottom/black sided Costar plates were purchased from CORNING LIFE SCIENCES (Corning, N.Y.; at.#3904). Gibco RPMI medium (Cat.#11875), Biosource anti-phospho-AKT([…]) antibody (Cat.#44-621G) and recombinant IGF-1 (Cat.#PHG0074) were purchased from INVITROGEN (Carlsbad, Calif.). The secondary donkey anti-rabbit IgG horse radish peroxidase conjugate (Cat. #N[…]) and ECL chemiluminesence reagent (Cat.#RPN2209) were purchased from […] (Buckinghamshire, UK). Cell culture tested bovine serum albumin solution (35% in DPBS; Cat.#A7979) and all other chemicals were purchased from SIGMA (St. Louis, Mo.). The Wallac Victor2 1420 Multilabel HTS Counter was purchased from […] (Wellesley, Mass.) […] All wells (except no IGF-1 controls) were then treated with 25 ng/ml IGF-1 for 10 minutes at 37° C. in a 5% CO2 incubator. Following removal of the supernatants and washing with the wells with TBS (50 mM Tris pH 8.0 containing 138 mM NaCL and 27 mM KCl), 200 µL of 3.7% formaldehyde in TBS was added to each well, and the plate was incubated at 4° C. for 10 minutes. Supernatants were once again removed and replaced with 50 μL Methanol (-20° C.) and the plate incubated at 4° C. for 5 minutes. 200 μL of 0.1% BSA in TBS was then added to each well and the plate incubated at room temperature for 1⁄2 hour. Supernatants were removed and 50 μL of a solution comprising the primary anti-phospho-AKT([…]) antibody diluted 1:250 in TBS containing 0.1% BSA was added to each well (except control/background wells). The plate was then incubated for 11⁄2 hour at room temperature. Supernatants were removed, each well was washed 3 times with 200 μL TBS, and 100 μL of a solution containing the secondary donkey anti-rabbit IgG antibody HRP-conjugate diluted 1:100 in TBS-T (TBS containing 0.1% triton). Plates were then incubated for 1 hour at room temperature. After removing the secondary antibody, each well was washed 6 times with cold TBS-T, 100 μL of ECL was added to each well, and the plate was placed on an orbital shaker for 1 minute. The plates were then read on a Wallac Victor2 1420 Multilabel HTS Counter using the luminometry window (maximum light detection is measured at […]). IC50 values were determined from the inhibition curve.
row,SMILES,IC50 [nM]
1,"COc1c(OCCCN2CCOCC2)ccc2c1N=C(NC(=O)c1cnc(N)nc1)N1CCN=C21 [Example 13, 2-amino-N-[7-methoxy-8-(3-morpholin-4-ylpropoxy)-2,3-dihydroimidazo[1,2-c]quinazolin-5-yl]pyrimidine-5-carboxamide]",< 100

# Same assay, conditions: Homo sapiens; A549 cells, 25 ng/ml IGF-1, phospho-AKT(Ser 473); read-out: average IC50 in the A549 cell assay
row,SMILES,IC50 [nM]
1,"COc1c(OCCCN2CCOCC2)ccc2c1N=C(NC(=O)c1cncnc1)N1CCN=C21 [Example 1, N-[7-methoxy-8-(3-morpholin-4-ylpropoxy)-2,3-dihydroimidazo[1,2-c]quinazolin-5-yl]pyrimidine-5-carboxamide]",100 to 1000
2,"COc1c(OCCCN2C[C@@H](C)O[C@@H](C)C2)ccc2c1N=C(NC(=O)c1cccnc1)N1CCN=C21 [Example 2, N-(8-{3-[(2R,6S)-2,6-dimethylmorpholin-4-yl]propoxy}-7-methoxy-2,3-dihydroimidazo[1,2-c]quinazolin-5-yl)nicotinamide]",< 100
3,"COc1c(OCCCN2C[C@@H](C)O[C@@H](C)C2)ccc2c1N=C(NC(=O)c1sc(C)nc1C)N1CCN=C21 [Example 3, N-(8-{3-[(2R,6S)-2,6-dimethylmorpholin-4-yl]propoxy}-7-methoxy-2,3-dihydroimidazo[1,2-c]quinazolin-5-yl)-2,4-dimethyl-1,3-thiazole-5-carboxamide]",< 100
4,"COc1c(OCCCN2CCOCC2)ccc2c1N=C(NC(=O)c1cnc(N)s1)N1CCN=C21 [Example 4, 2-amino-N-[7-methoxy-8-(3-morpholin-4-ylpropoxy)-2,3-dihydroimidazo[1,2-c]quinazolin-5-yl]-1,3-thiazole-5-carboxamide]",100 to 1000
5,"COc1c(OCCCN2CCOCC2)ccc2c1N=C(NC(=O)c1ccnc(N)c1)N1CCN=C21 [Example 5, 2-amino-N-[7-methoxy-8-(3-morpholin-4-ylpropoxy)-2,3-dihydroimidazo[1,2-c]quinazolin-5-yl]isonicotinamide]",100 to 1000
6,"COc1c(OCCCN2CCOCC2)ccc2c1N=C(NC(=O)c1sc(N)nc1C)N1CCN=C21 [Example 6, 2-amino-N-[7-methoxy-8-(3-morpholin-4-ylpropoxy)-2,3-dihydroimidazo[1,2-c]quinazolin-5-yl]-4-methyl-1,3-thiazole-5-carboxamide]",< 100
7,"CCCc1nc(N)ncc1C(=O)NC1=Nc2c(ccc(OCCCN3CCOCC3)c2OC)C2=NCCN12 [Example 7, 2-amino-N-[7-methoxy-8-(3-morpholin-4-ylpropoxy)-2,3-dihydroimidazo[1,2-c]quinazolin-5-yl]-4-propylpyrimidine-5-carboxamide]",< 100
8,"CCN1CCOC(CCOc2ccc3c(c2OC)N=C(NC(=O)c2cccnc2)N2CCN=C32)C1 (stereo not drawn) [Example 8, N-{8-[2-(4-ethylmorpholin-2-yl)ethoxy]-7-methoxy-2,3-dihydroimidazo[1,2-c]quinazolin-5-yl}nicotinamide]",< 100
9,"COc1c(OCCN(C)C)ccc2c1N=C(NC(=O)c1cncnc1)N1CCN=C21 [Example 9, N-{8-[2-(dimethylamino)ethoxy]-7-methoxy-2,3-dihydroimidazo[1,2-c]quinazolin-5-yl}pyrimidine-5-carboxamide]",100 to 1000
10,"COc1c(OCC(O)CN2CCOCC2)ccc2c1N=C(NC(=O)c1cccnc1)N1CCN=C21 (stereo not drawn) [Example 16, N-[8-(2-hydroxy-3-morpholin-4-ylpropoxy)-7-methoxy-2,3-dihydroimidazo[1,2-c]quinazolin-5-yl]nicotinamide]",< 100
11,"COc1c(OCCCN2CCOC(CO)C2)ccc2c1N=C(NC(=O)c1cccnc1)N1CCN=C21 (stereo not drawn) [Example 18, N-(8-{3-[2-(hydroxymethyl)morpholin-4-yl]propoxy}-7-methoxy-2,3-dihydroimidazo[1,2-c]quinazolin-5-yl)nicotinamide]",< 100
12,"COCCN1CCOC(COc2ccc3c(c2OC)N=C(NC(=O)c2cccnc2)N2CCN=C32)C1 (stereo not drawn) [Example 22, N-(7-methoxy-8-{[4-(2-methoxyethyl)morpholin-2-yl]methoxy}-2,3-dihydroimidazo[1,2-c]quinazolin-5-yl)nicotinamide]",< 100
13,"COc1c(OCC2CN(C)CCO2)ccc2c1N=C(NC(=O)c1cccnc1)N1CCN=C21 (stereo not drawn) [Example 23, N-{7-methoxy-8-[(4-methylmorpholin-2-yl)methoxy]-2,3-dihydroimidazo[1,2-c]quinazolin-5-yl}nicotinamide]",< 100
14,"COc1c(OCCCN2CCOCC2)ccc2c1N=C(NC(=O)c1cncn1C)N1CCN=C21 [Example 30, N-[7-methoxy-8-(3-morpholin-4-ylpropoxy)-2,3-dihydroimidazo[1,2-c]quinazolin-5-yl]-1-methyl-1H-imidazole-5-carboxamide]",100 to 1000
15,"COc1c(OCCCN2CCOCC2)ccc2c1N=C(NC(=O)c1ccc(N)nc1C)N1CCN=C21 [Example 31, 6-amino-N-[7-methoxy-8-(3-morpholin-4-ylpropoxy)-2,3-dihydroimidazo[1,2-c]quinazolin-5-yl]-2-methyl nicotinamide]",< 100
16,"COc1c(OCCCN2CCOCC2)ccc2c1N=C(NC(=O)c1cnc(N)nc1C)N1CCN=C21 [Example 32, 2-amino-N-[7-methoxy-8-(3-morpholin-4-ylpropoxy)-2,3-dihydroimidazo[1,2-c]quinazolin-5-yl]-4-methylpyrimidine-5-carboxamide]",< 100
17,"COc1c(OCCCN2CCOCC2)ccc2c1N=C(NC(=O)c1cnc(N)c(Br)c1)N1CCN=C21 [Example 33, 6-amino-5-bromo-N-[7-methoxy-8-(3-morpholin-4-ylpropoxy)-2,3-dihydroimidazo[1,2-c]quinazolin-5-yl]nicotinamide]",< 100
18,"COc1c(OCCCN2CCOCC2)ccc2c1N=C(NC(=O)c1cnc(N)o1)N1CCN=C21 [Example 34, 2-amino-N-[7-methoxy-8-(3-morpholin-4-ylpropoxy)-2,3-dihydroimidazo[1,2-c]quinazolin-5-yl]-1,3-oxazole-5-carboxamide]",100 to 1000
19,"COc1c(OCC2CNCCO2)ccc2c1N=C(NC(=O)c1cccnc1)N1CCN=C21 (stereo not drawn) [Example 35, N-[7-methoxy-8-(morpholin-2-ylmethoxy)-2,3-dihydroimidazo[1,2-c]quinazolin-5-yl]nicotinamide]",< 100
20,"COc1c(OCCCN(C)C)ccc2c1N=C(NC(=O)c1cnc(NCCN(C)C)nc1)N1CCN=C21 [Example 36, 2-{[2-(dimethylamino)ethyl]amino}-N-{8-[3-(dimethylamino)propoxy]-7-methoxy-2,3-dihydroimidazo[1,2-c]quinazolin-5-yl}pyrimidine-5-carboxamide]",100 to 1000
21,"COc1c(OCCCN(C)C)ccc2c1N=C(NC(=O)c1cnc(N)s1)N1CCN=C21 [Example 37, 2-amino-N-{8-[3-(dimethylamino)propoxy]-7-methoxy-2,3-dihydroimidazo[1,2-c]quinazolin-5-yl}-1,3-thiazole-5-carboxamide]",< 100
22,"COc1c(OCCCN2CCOCC2)ccc2c1N=C(NC(=O)c1cnc(NCCO)nc1)N1CCN=C21 [Example 40, 2-[(2-hydroxyethyl)amino]-N-[7-methoxy-8-(3-morpholin-4-ylpropoxy)-2,3-dihydroimidazo[1,2-c]quinazolin-5-yl]pyrimidine-5-carboxamide]",100 to 1000
23,"COc1c(OCCCN(C)C)ccc2c1N=C(NC(=O)c1cnc(N)nc1)N1CCN=C21 [Example 42, 2-amino-N-{8-[3-(dimethylamino)propoxy]-7-methoxy-2,3-dihydroimidazo[1,2-c]quinazolin-5-yl}pyrimidine-5-carboxamide]",< 100
